Results published in US4983740A, “Process for 1,4-dihydropyridine compounds” (Adir et Compagnie, priority 1986, dated 1991).
Where a name gives a salt, the structure may show the parent alone.

Tests used:
rat aorta = assay: In vitro activity in rat aorta stimulated by potassium ions; assay type: cell-based, rat (male Wistar); conditions: 1 h; rat aorta rings, KCl 80 mM stimulation, cumulative doses at 60 minutes intervals
Method: Determination of the Vitro Activity in Rat Aorta Stimulated by Potassium Ions
This trial was carried out using isolated organs removed from male Wistar rats weighing 300 to 400 g, kept under a water diet 18 hours before sacrificing.
After quickly sacrificing the animal, the aorta (at the level of the arch of the aorta) is removed and dissected into 2 mm-long rings; the endothelium is removed mechanically. After an equilibration period of 1 hour in a physiological solution consisting of (mM): NaCl 112, KCl 5, KH2 PO4 1, MgSO4 1.2, CaCl2 2.5, NaHCO3 25 and glucose 11.5, the preparations are stimulated with a potassium-rich solution. The latter consists of (mM):NaCl 37, KCl 80, KH2 PO4 1, MgSO4 1.2, CaCl2 2.5, NaHCO3 25 and glucose 11.5. This solution has a pH of 7.4 at 37° C.
After 15 minutes of stabilization, the compounds to be tested are then added (sample volume 0.2 ml) at cumulative doses at 60 minutes intervals. From the relaxation values obtained, it is possible to construct a doseresponse curve, leading to the calculation of an IC50 value (expressed in M).

[1] = system: conscious spontaneous hypertensive rats (SHR); assay: Short-term studies in conscious spontaneous hypertensive rats (oral, systolic arterial pressure); assay type: in vivo, rat (SHR); conditions: 3 mg/kg
Method: Short-term Studies in Conscious Spontaneous Hypertensive Rats (SHR)
Male spontaneous hypertensive rats weighing 270 to 320 g, aged 16 to 24 weeks, are anesthetized with ether. A polyethylene catheter is introduced into the femoral artery and moved forward to the level of the tail. The pressure in the femoral artery is recorded with a Statham® P23 sensor, on a Gould® 2400 recorder. The animals are treated at least one hour after the operation. The compounds are administered orally, in the dissolved form. The doses administered are expressed in mg/kg of base. The compounds of the invention were compared with amlodipine and with another 1,4-dihydropyridine derivative reference compound, nifedipine.

[2] = system: conscious dogs with renal hypertension; assay: Study in conscious dogs with renal hypertension (oral, mean arterial pressure); assay type: in vivo, dog (Mongol); conditions: digestive route
Description: Study in Conscious Dogs with Renal Hypertension
Mongol dogs weighing 20 to 25 kg are used. A Silastic® catheter, inserted under anesthesia at the level of the abdominal aorta, left in position permanently, enables the arterial pressure to be determined subsequently in the conscious animal.
Arterial hypertension is induced by a second operation, under anesthesia, consisting in constricting the left renal artery with a clip, decreasing the flow rate therein by approximately 70%, the left kidney is also covered with a latex capsule in order to restrict circulatory compensations; the contralateral kidney is left in position.
The systolic, diastolic and mean arterial pressures are determined with a Statham® P23 pressure sensor attached to the Silastic® catheter and connected to a Gould® "pressure-processor". The compounds are tested in animals which became hypertensive in the conscious state at least one week after the second operation. The arterial pressure is continuously recorded up to 7 hours after the treatment and then at 24 hours.
The compounds to be tested are administered by the digestive route through gastric tubing, in the form of a solution which may be aqueous, aqueous/alcoholic and the like, depending on the solubility of the products.
The doses administered are expressed in mg base per body weight kg.

[3] = system: conscious spontaneous hypertensive rats (SHR); assay: Long-term studies in conscious spontaneous hypertensive rats (oral, single daily dose, systolic arterial pressure); assay type: in vivo, rat (SHR); conditions: 1 mg/kg/d
Method: Long-term Studies in Conscious Spontaneous Hypertensive rats (SHR) Male rats weighing 280 to 300 g, aged 16 weeks, are used in this study. The systolic arterial pressure is determined with a Rhema multichannel 8,000® apparatus, according to the indirect method, at the tail of the animal. The compounds to be tested are administered orally, in a single daily dose. Determinations of arterial pressure are carried out each day just before the treatment. Amlodipine was also studied under the same conditions.

| Compound | IC50 (rat aorta) | Systolic arterial pressure after treatment, Δ mm Hg, 4 h [1] | Systolic arterial pressure after treatment, Δ mm Hg, 6 h [1] | Systolic arterial pressure after treatment, Δ mm Hg, 24 h [1] | also measured |
| --- | --- | --- | --- | --- | --- |
| CCOC(=O)C1=C(COCCOCCN(C)Cc2ccccc2)NC(C)=C(C(=O)OC)C1c1ccccc1Cl (racemic) [EXAMPLE 7, (4R,S)-2-[{2-[2-(N-Methyl-N-benzylamino)ethoxy]ethoxy}-methyl]-4-(2-chlorophenyl)-3-ethoxycarbonyl-5-methoxycarbonyl-6-methyl-1,4-dihydropyridine tartrate] | 4 nM | -22 mm Hg | -16 mm Hg | -8 mm Hg | Mean arterial pressure after treatment, Δ mm Hg, 4 h ([2]; 0.5 mg/kg): -7 mm Hg; Mean arterial pressure after treatment, Δ mm Hg, 7 h ([2]; 0.5 mg/kg): -3 mm Hg; Mean arterial pressure after treatment, Δ mm Hg, 24 h ([2]; 0.5 mg/kg): 0 mm Hg |
| CCOC(=O)C1=C(CCCCCCCN)NC(C)=C(C(=O)OC)C1c1ccccc1Cl (racemic) [EXAMPLE 12, (4R,S)-2-(7-Aminoheptyl)-4-(2-chlorophenyl)-3-ethoxycarbonyl-5-methoxycarbonyl-6-methyl-1,4-dihydropyridine fumarate] | 25 nM | -23 mm Hg | -30 mm Hg | -21 mm Hg | Mean arterial pressure after treatment, Δ mm Hg, 4 h ([2]; 2.0 mg/kg): -22 mm Hg; Mean arterial pressure after treatment, Δ mm Hg, 7 h ([2]; 2.0 mg/kg): -32 mm Hg |
| COC(=O)C1=C(C)NC(COCCOCCN)=C(C(=O)OCCCC(C2CC2)C2CC2)C1c1cccc(C(F)(F)F)c1Cl (racemic) [EXAMPLE 36, (4R,S)-2-{[2-(2-Aminoethoxy)ethoxy]methyl}-4-(2-chloro-3-trifluoromethylphenyl)-3-(4,4-dicyclopropylbutyloxycarbonyl)-5-methoxycarbonyl-6-methyl-1,4-dihydropyridine fumarate] | 470 nM |  |  |  |  |
| CCOC(=O)C1=C(COCCN)NC(C)=C(C(=O)OC)C1c1ccccc1Cl (centres unmarked) [AMLODIPINE, amlodipine, reference compound] |  | -47 mm Hg | -46 mm Hg | -13 mm Hg | Mean arterial pressure after treatment, Δ mm Hg, 4 h ([2]; 0.5 mg/kg): -28 mm Hg; Mean arterial pressure after treatment, Δ mm Hg, 7 h ([2]; 0.5 mg/kg): -20 mm Hg; Mean arterial pressure after treatment, Δ mm Hg, 24 h ([2]; 0.5 mg/kg): -10 mm Hg; Mean arterial pressure after treatment, Δ mm Hg, 4 h ([2]; 1.0 mg/kg): -45 mm Hg; Mean arterial pressure after treatment, Δ mm Hg, 7 h ([2]; 1.0 mg/kg): -39 mm Hg; Mean arterial pressure after treatment, Δ mm Hg, 24 h ([2]; 1.0 mg/kg): -29 mm Hg; Systolic arterial pressure Δ(mm Hg) 24 h after the last administration of the products, D1 ([3]; day 1): -9 mm Hg; Systolic arterial pressure Δ(mm Hg) 24 h after the last administration of the products, D2 ([3]; day 2): -8 mm Hg; Systolic arterial pressure Δ(mm Hg) 24 h after the last administration of the products, D3 ([3]; day 3): -14 mm Hg; Systolic arterial pressure Δ(mm Hg) 24 h after the last administration of the products, D4 ([3]; day 4): -14 mm Hg; Systolic arterial pressure Δ(mm Hg) 24 h after the last administration of the products, D7 ([3]; day 7): -9 mm Hg |
| COC(=O)C1=C(C)NC(COCCOCCN)=C(C(=O)OC/C=C/C(C2CC2)C2CC2)C1c1cccc(Cl)c1Cl [EXAMPLE 29, (4R,S)-2-{[2-(2-Aminoethoxy)ethoxy]methyl}-4-(2,3-dichlorophenyl)-3-{[(E)-4,4-dicyclopropyl-2-butene]-oxycarbonyl}-5-methoxycarbonyl-6-methyl-1,4-dihydropyridine tartrate] | 75 nM |  |  |  |  |
| COC(=O)C1=C(C)NC(COCCOCCN)=C(C(=O)OC/C=C/C(C2CC2)C2CC2)C1c1cccc(C(F)(F)F)c1Cl [EXAMPLE 37, (4R,S)-2-{[2-(2-Aminoethoxy)ethoxy]methyl}-4-(2-chloro-3-trifluoromethylphenyl)-3-{[(E)-4,4-dicyclopropyl-2-butene]oxycarbonyl}-5-methoxycarbonyl-6-methyl-1,4-dihydropyridine fumarate] | 350 nM |  |  |  |  |
| COC(=O)C1=C(C)NC(C)=C(C(=O)OC)C1c1ccccc1[N+](=O)[O-] [NIFEDIPINE, nifedipine, reference compound] |  | -19 mm Hg | -25 mm Hg |  |  |

Further lines, with some results ahead:

| IC50 (rat aorta) | Compound | Systolic arterial pressure after treatment, Δ mm Hg, 4 h [1] | Systolic arterial pressure after treatment, Δ mm Hg, 6 h [1] | Systolic arterial pressure after treatment, Δ mm Hg, 24 h [1] | also measured |
| --- | --- | --- | --- | --- | --- |
| 30 nM | CCOC(=O)C1=C(COCCOCCN)NC(C)=C(C(=O)OC)C1c1cccc2c1OCO2 (racemic) [EXAMPLE 2, (4R,S)-2-{[2-(2-Aminoethoxy)ethoxy]methyl}-3-ethoxycarbonyl-5-methoxycarbonyl-6-methyl-4-(2,3-methylenedioxyphenyl)-1,4-dihydropyridine] | -13 mm Hg | -16 mm Hg |  |  |
| 65 nM | CCOC(=O)C1=C(COCCOCCN)NC(C)=C(C(=O)OC)C1c1ccccc1Cl (racemic) [EXAMPLE 5, (4R,S)-2-{[2-(2-Aminoethoxy)ethoxy]methyl}-4-(2-chlorophenyl)-3-ethoxycarbonyl-5-methoxycarbonyl-6-methyl-1,4-dihydropyridine fumarate] | -49 mm Hg | -49 mm Hg | -22 mm Hg | Mean arterial pressure after treatment, Δ mm Hg, 4 h ([2]; 0.5 mg/kg): -32 mm Hg; Mean arterial pressure after treatment, Δ mm Hg, 7 h ([2]; 0.5 mg/kg): -25 mm Hg; Mean arterial pressure after treatment, Δ mm Hg, 4 h ([2]; 1.0 mg/kg): -48 mm Hg; Mean arterial pressure after treatment, Δ mm Hg, 7 h ([2]; 1.0 mg/kg): -39 mm Hg; Mean arterial pressure after treatment, Δ mm Hg, 24 h ([2]; 1.0 mg/kg): -10 mm Hg |
| 6.5 nM | C=CCN(CC=C)CCOCCOCC1=C(C(=O)OCC)C(c2ccccc2Cl)C(C(=O)OC)=C(C)N1 (racemic) [EXAMPLE 8, (4R,S)-4-(2-Chlorophenyl)-2-[{2-[2-(N,N-diallylamino)ethoxy]ethoxy}methyl]-3-ethoxycarbonyl-5-methoxycarbonyl-6-methyl-1,4-dihydropyridine hemifumarate] | -21 mm Hg | -19 mm Hg |  |  |
| 21 nM | COC(=O)C1=C(C)NC(COCCOCCN)=C(C(=O)OC(C)C)C1c1cccc(C(F)(F)F)c1Cl (racemic) [EXAMPLE 35, (4R,S)-2-{[2-(2-Aminoethoxy)ethoxy]methyl}-4-(2-chloro-3-trifluoromethylphenyl)-3-isopropoxycarbonyl-5-methoxycarbonyl-6-methyl-1,4-dihydropyridine tartrate] |  |  |  |  |
| 61 nM | COC(=O)C1=C(C)NC(COCCOCCN)=C(C(=O)OCC(C)C)C1c1cccc(C(F)(F)F)c1Cl (racemic) [EXAMPLE 38, (4R,S)-2-{[2-(2-Aminoethoxy)ethoxy]methyl}-4-(2-chloro-3-trifluoromethylphenyl)-3-isobutyloxycarbonyl-5-methoxycarbonyl-6-methyl-1,4-dihydropyridine fumarate] |  |  |  |  |
| 80 nM | C=C(C)COC(=O)C1=C(COCCOCCN)NC(C)=C(C(=O)OC)C1c1cccc(Cl)c1Cl (racemic) [EXAMPLE 39, (4R,S)-2-{[2-(2-Aminoethoxy)ethoxy]methyl}-4-(2,3-dichlorophenyl)-3-[(2-methyl-2-propenyl)oxycarbonyl]-5-methoxycarbonyl-6-methyl-1,4-dihydropyridine fumarate] |  |  |  |  |
